From ChEMBL document CHEMBL3351427, “Trimeric anthracenes from the endophytic fungus Stemphylium globuliferum” (J Nat Prod, 2014)
In brackets after ≈: the same amount, converted by molar mass.

What was measured:
Assay type in all cases: functional
Staphylococcus aureus = experiment: Antibacterial activity against Staphylococcus aureus ATCC 29213 by broth microdilution method
Escherichia coli = experiment: Antibacterial activity against Escherichia coli ATCC 25922 by broth microdilution method
Pseudomonas aeruginosa = experiment: Antibacterial activity against Pseudomonas aeruginosa B 63230 by broth microdilution method

`CN(C)[C@@H]1C(O)=C(C(N)=O)C(=O)[C@@]2(O)C(O)=C3C(=O)c4c(O)cccc4[C@@](C)(O)[C@H]3C[C@@H]12` [TETRACYCLINE] gave an MIC (Staphylococcus aureus) of 0.25 µg/mL (≈ 0.563 µM), an MIC (Escherichia coli) of 0.5 µg/mL (≈ 1.13 µM) and an MIC (Pseudomonas aeruginosa) of 32 µg/mL (≈ 72 µM).
